Columns and labels:
[1] = test system: HBV replication in AML12HBV10 cells; assay: Antiviral efficacy in AML12HBV10 cells (HBV DNA dot-blot hybridization); type: cell-based, Hepatitis B virus (HBV); settings: Hepatitis B virus, AML12HBV10, 48 h, read-out: AML12HBV10 EC50, concentration that reduces the amount of HBV DNA by 50%, serial dilution 50 μM to 0.39 μM
Description: The HBV replication inhibitors of the present invention are capable of treating and preventing diseases associated with HBV infection.
The antiviral efficacy of the compounds of the disclosure, as presented in Table 1, were determined in AML12HBV10 cells. AML12HBV10 is an immortalized murine hepatocyte (AML12)-derived stable cell line that supports robust HBV replication in a tetracycline inducible manner (Xu et al.). The cells were seeded into 96 well plates at a density of 2×10^4 cells per well and cultured in DMEM/F12 media with 10% fetal bovine serum in the absence of tetracycline to allow pgRNA transcription and HBV DNA replication. One day after seeding, cells were left untreated or treated with a serial dilution of testing compounds, ranging from 50 μM to 0.39 μM, for 48 hours. Cells were then lysed by adding into each well of 100 μl lysis buffer containing 10 mM Tris-HCl (pH 7.6), 1 mM EDTA, 100 mM NaCl and 1% NP-40 and incubated at 37° C. for 30 minutes. Half amount (50 μl) of cell lysate from each well was combined with equal volume of denaturing solution containing 0.5N NaOH and 1.5M NaCl. After 5 minute incubation, 100 µl of neutralization solution (1M Tris-HCl, pH 7.4, 1.5M NaCl) was added into each well. The denatured cell lysates (totally 200 μl) were applied onto Nylon membrane using 96-well dot-blot manifold (Biorad). HBV DNA in the cell lysates were determined by dot-blot hybridization with alpha-^32P-UTP-labelled riboprobe specific for HBV minus strand DNA. The antiviral efficacy of a compound of the disclosure was expressed as the concentration that reduces the amount of HBV DNA by 50% (EC50).

[2] = Cytotoxicity in AML12HBV10 cells (MTT assay); type: cell-based, murine; settings: mouse, concentration that reduces viability by 50%, serial dilution 50 μM to 0.39 μM
Description: Determination of cytotoxicity of compounds of the disclosure in AML12HBV10 cells: To determine the cytotoxicity of the compounds, AML12HBV10 cells were seeded into 96-well plates at a density of 2×10^4 cells per well and cultured in DMEM/F12 media with 10% fetal bovine serum in the absence of tetracycline to allow pgRNA transcription and HBV DNA replication. One day after seeding, cells were left untreated or treated with a serial dilution of testing compounds, ranging from 50 μM to 0.39 μM, for 48 hours. The cell viability was measured by a MTT assay, following procedure provided by the manufacturer (Promega). The cytotoxicity of a compound was expressed as the concentration of compound that reduces the viability of the cells by 50% (CC50).

[3] = test system: HBV replication in HepDES19 cells; assay: Antiviral activity in HepDES19 cells (core-associated HBV DNA, Southern blot); type: cell-based, Hepatitis B virus (HBV); settings: concentration that reduces core-associated HBV DNA by 50%, 6 days, serial dilution 10 μM to 0.018 μM
Source text: Determination of antiviral activity of compounds of the disclosure, as presented in Table 1, in human hepatoma-derived cell lines: To further confirm the antiviral activity of the compounds of the disclosure against HBV in human hepatocyte-derived cells, HepDES19 cells, a human hepatoma cell line supporting HBV replication in a tetracycline inducible manner (Guo et al., 2007), seeded into 12-well plates at a density of 5×10^5 cells per well and cultured in DMEM/F12 media with 10% fetal bovine serum and 1 μg/ml tetracycline. Two days after seeding, the cells were mock-treated or treated with a serial dilution of compounds of the disclosure, ranging from 10 μM to 0.018 μM, for 6 days in the absence of tetracycline. Upon the completion of treatment, cells were lysed by adding into each well of the 12-well plates 0.5 ml of lysis buffer containing 10 mM Tris-HCl (pH 8.0), 1 mM EDTA, 1% NP40 and 2% sucrose and incubating at 37° C. for 10 minutes. Cell debris and nuclei were removed by centrifugation and the supernatant was mixed with 130 μl of 35% polyethylene glycol (PEG) 8000 containing 1.5 M NaCl. After 1 hour incubation in ice, viral nucleocapsids were pelleted by centrifugation at 6,000×g for 5 min at 4° C., followed by 1 hour digestion at 37° C. in 400 μl of digestion buffer containing 0.5 mg/ml pronase (Calbiochem), 0.5% SDS, 150 mM NaCl, 25 mM Tris-HCl (pH 8.0) and 10 mM EDTA. The digestion mixture was extracted twice with phenol and DNA was precipitated with ethanol, dissolved in TE buffer (10 mM Tris-HCl, pH 8.0; 0.1 mM EDTA). One half of the DNA sample from each well was resolved by electrophoresis into a 1.5% agarose gel. The gel was then subjected to denaturation in a solution containing 0.5 M NaOH and 1.5 M NaCl, followed by neutralization in a buffer containing 1 M Tris-HCl (pH7.4) and 1.5 M NaCl. DNA was then blotted onto Hybond-XL membrane (GE Health care) in 20×SSC buffer. The amounts of cytoplasmic HBV core-associated HBV DNA were determined by Southern blot hybridization and the antiviral efficacy of a compound was expressed as its concentration that reduce the amount of HBV DNA by 50% (EC50) or 90% (EC90).

[4] = Hepatitis B virus, HepDES19, 144 h

SMILES	EC50 [1] [µM]	CC50 at 48 h [2] [µM]	EC50 [3, 4] [µM]	EC50 [3] [µM]
COc1cccc(NC(=O)c2scc3c2CCCC3)c1 [Entry 4]	8	> 50	–	–
O=C(Nc1ccc(F)c(Cl)c1)c1cccc2c1OCCCO2 [Entry 44]	1.1	> 25	–	–
O=C(Nc1ccc(F)cc1Cl)c1cccc2c1OCCO2 [Entry 36]	7.41	> 10	–	–
O=C(Nc1cccc(F)c1)c1cccc2c1OCCO2 [Entry 25]	0.41	> 10	–	–
O=C(Nc1cccc(Cl)c1)c1cccc(F)c1F [Entry 12]	30	> 50	–	–
O=C(Nc1ccc(Cl)c(Cl)c1)c1cccc2c1OCCO2 [Entry 35]	0.49	> 10	–	–
O=C(Nc1cccc(Cl)c1)c1ccccc1Cl [Entry 13]	12.3	> 50	–	–
O=C(Nc1cccc(OC(F)(F)F)c1)c1cccc2c1OCCO2 [Entry 27]	11.2	> 10	–	–
O=C(Nc1ccc(F)cc1F)c1cccc(Cl)c1Cl [Entry 34]	13.2	> 10	–	–
O=C(Nc1cccc(Cl)c1)c1cccc(Cl)c1Cl [Entry 14]	8.3	> 50	22.2	–
O=C(Nc1ccc(Br)cc1F)c1cccc2c1OCCO2 [Entry 29]	10.6	> 10	–	–
O=C(Nc1cc(Cl)cc(Cl)c1)c1cccc2c1OCCO2 [Entry 20]	4.85	> 50	–	–
O=C(Nc1ccccc1F)c1cccc2c1OCCO2 [Entry 28]	10.8	> 10	–	–
O=C(Nc1cccc(Cl)c1)c1c(F)cccc1F [Entry 15]	31.2	> 50	–	–
O=C(Nc1ccc(Cl)c(F)c1)c1cccc2c1OCCO2 [Entry 41]	1.48	> 25	–	–
O=C(Nc1ccc(O)cc1)c1scc2c1CCCC2 [Entry 1]	36	> 50	–	–
O=C(Nc1ccc(F)cc1)c1cccc2c1OCCO2 [Entry 26]	0.4	> 10	–	–
O=C(Nc1ccc(F)c(F)c1)c1cccc(Cl)c1Cl [Entry 33]	1.86	> 10	–	–
O=C(Nc1ccc(F)cc1F)c1cccc2c1OCCO2 [Entry 32]	8.53	> 10	–	–
O=C(Nc1cccc(Cl)c1)c1cccc2ccccc12 [Entry 18]	6.52	> 50	4.2	–
O=C(Nc1cccc(Cl)c1)c1ccccc1 [Entry 8]	46.2	> 50	–	–
O=C(Nc1cc(F)ccc1F)c1cccc2c1OCCO2 [Entry 30]	14.9	> 10	–	–

SMILES	EC50 [1] [µM]	CC50 at 48 h [2] [µM]	EC50 [3, 4] [µM]	EC50 [3] [µM]
O=C(Nc1c(F)cc(F)cc1F)c1cccc2c1OCCO2 [Entry 40]	10.5	> 10	–	–
O=C(Nc1ccc(F)c(F)c1)c1cccc2c1OCCO2 [Entry 31]	0.17	> 10	–	–
O=C(Nc1cccc(C(F)(F)F)c1)c1scc2c1OCCO2 [Entry 5]	8.5	> 50	–	–
O=C(Nc1ccccc1)c1scc2c1CCCC2 [Entry 2]	9	> 50	–	–
O=C(Nc1cccc(Cl)c1)c1csc2ccccc12 [Entry 11]	30	> 50	–	–
O=C(Nc1ccc(F)c(F)c1)c1scc2c1OCCO2 [Entry 22]	< 0.4	> 50	–	–
O=C(Nc1ccc(F)cc1)c1scc2c1CCCC2 [Entry 3]	25	> 50	–	–
O=C(Nc1ccc(F)c(F)c1)c1ccc2ccccc2c1 [Entry 21]	23.9	> 50	–	–
O=C(Nc1ccc(F)c(F)c1)c1cccc2c1CCCC2 [Entry 46]	1.48	> 25	–	–
O=C(Nc1ccc(Cl)c(F)c1)c1cccc2c1CCCC2 [Entry 45]	1.66	> 25	–	–
O=C(Nc1ccc(F)c(F)c1)c1cccc2c1OCCCO2 [Entry 43]	1.93	> 25	–	–
O=C(Nc1ccccc1)c1scc2c1OCCO2 [Entry 7]	3	> 50	–	3
O=C(Nc1ccc(F)c(Cl)c1)c1cccc2c1OCCO2 [Entry 38]	0.05	> 10	–	–
O=C(Nc1cccc(Cl)c1)c1cccc2c1OCCCO2 [Entry 42]	2.75	> 25	–	–
O=C(Nc1cccc(Cl)c1)c1cccc2c1OCO2 [Entry 24]	1.14	> 10	–	–
O=C(Nc1cccc(Cl)c1)c1ccccc1F [Entry 17]	16.5	> 50	–	–
O=C(Nc1ccc(Cl)cc1F)c1cccc2c1OCCO2 [Entry 37]	8.88	> 10	–	–
O=C(Nc1cccc(I)c1)c1ccc2ccccc2c1 [Entry 23]	19.4	> 50	–	–
O=C(Nc1ccc(F)c(F)c1F)c1cccc2c1OCCO2 [Entry 39]	3	> 10	–	–
O=C(Nc1cccc(I)c1)c1scc2c1OCCO2 [Entry 9]	2.8	> 50	–	–
O=C(Nc1cccc(Cl)c1)c1c(Cl)cccc1Cl [Entry 16]	35.3	> 50	–	–

— US20190092720A1, “FUNCTIONALIZED BENZAMIDE DERIVATIVES AS ANTIVIRAL AGENTS AGAINST HBV INFECTION” (BARUCH S. BLUMBERG INSTITUTE, priority 2012, published 2019)
